One series relates to miR-17. The experiment in a line: microRNA polysome shift assay (miPSA), kidney target engagement. The class given is in vivo, mouse. Also noted: miPSA Score Wild Type Mice / miPSA Score PKD Mice / miPSA displacement score (mean): scale not given here. Particulars: for miPSA Kidney AUC (8 hours to 7 days) / Potency Kidney D7: wild-type mice, single s.c. dose 30 mg/kg; for Potency Kidney D7: day 7. The protocol:
(§1) In vivo potency was evaluated using the microRNA polysome shift assay (miPSA). This assay was used to determine the extent to which compounds directly engage the miR-17 target in the kidney in normal and PKD mice. The miPSA relies on the principle that active miRNAs bind to their mRNA targets in translationally active high molecular weight (HMW) polysomes, whereas the inhibited miRNAs reside in the low MW (LMW) polysomes. Treatment with anti-miR results in a shift of the microRNA from HMW polysomes to LMW polysomes. Thus, the miPSA provides a direct measurement of microRNA target engagement by a complementary anti-miR (Androsavich et al., Nucleic Acids Research, 2015, 44: e13).
The miPSA was used to assess the potency of each compound, measured by the displacement score, in wild type and JCK mice. Tissue accumulation of anti-miR-17 compound was measured by extraction of compound using liquid-liquid extraction (LLE) and/or solid-phase extraction (SPE), followed by analysis of the identity and concentration of compound using ion-pairing-reversed-phase high performance liquid chromatography coupled with time-of-flight mass spectrometry (IP—RP-HPLC-TOF).
Wild type mice were administered a single dose of 3 mg/kg for the miPSA analysis, and a single dose of 30 mg/kg for the tissue accumulation analysis. JCK mice were administered a single dose of 30 mg/kg for both the miPSA and tissue accumulation analyses. Kidney tissue was collected seven days following the administration of anti-miR-17 compound. […] A higher kidney-to-liver ratio is generally preferred for a disease where the primary site of action is the kidney.
as §1, with “The” for “In vivo potency was evaluated using the”, “(miPSA),” for “(miPSA). This assay”, “identify” for “determine the extent to which”, “compounds that” for “compounds”, “engage” for “engage the”, “miR-17” for “miR-17 target”
For this experiment, the PKD model selected was the JCK model, a mouse model of slowly progressing renal cystic disease associated with the same gene that causes human nephronophthisis type 9. Renal cysts in this mouse develop in multiple regions of the nephron.
C57BL6 mice were treated with a single, subcutaneous dose of 0.3, 3, and 30 mg/kg of RG4326 or tool anti-miR-17 (described in Example 1). JCK mice were treated with a single, subcutaneous dose of 3, 30, and 100 mg/kg of RG4326 or tool anti-miR-17. PBS treatment was used as an additional control. At seven days post-treatment, mice were sacrificed, and kidney tissue was isolated for the miPSA. […] The displacement scores following treatment with RG4326 were greater than the displacement scores following treatment with the tool anti-miR-17 compound. The data for wild-type mice and JCK mice are also shown in FIG. 3A and FIG. 3B, respectively.
Pharmacokinetic behavior was assessed by administering a single subcutaneous 30 mg/kg dose of RG4326 or tool anti-miR-17 compound to wild-type mice. At one hour, four hours, eight hours, one day, seven days, 14 days, 28 days and 56 days following the single injection, mice were sacrificed and the mean concentration of anti-miR compound in kidney and liver tissue was measured (ug/g) as described above. The area-under-curve (AUC) was calculated for kidney and liver tissue using the formula ug*h/g, where ug is the amount of oligonucleotide in the tissue, h is the timepoint of tissue collection in hours, and g is the weight of the tissue. The ratio of kidney AUC to liver AUC was determined. Kidney tissue was also processed to the miPSA, to determine target engagement for each compound in this study. […]

A further series relates to miR-17 family. Kind of series: In vitro assays of tool compound against miR-17 family. The protocol:
Previous studies using a research tool anti-miR-17 compound identified a role for miR-17 in PKD in two different models of PKD, the Pkd2-KO model (also known as the Pkhd1/cre; Pkd2^F/F model) and the Pcy model. The research tool modified oligonucleotide complementary to miR-17 was tested in mouse models of PKD. The anti-miR-17 compound was a fully phosphorothioated oligonucleotide 19 linked nucleosides in length (5′-CTGCACTGTAAGCACTTTG-3′; SEQ ID NO: 7), with DNA, 2′-MOE and S-cEt sugar moieties.

Series [1] relates to 18 pro-inflammatory genes. The experiment in a line: Ex vivo kidney slice assay. Particulars: rat kidney slice; 24-hour incubation; relative to PBS. It is filed as cell-based. On the procedure:
In in vitro assays, the potential for toxicity was assessed using a biochemical fluorescent binding assay (FBA) and a liver or kidney slice assay. The FBA is performed by incubating a fluorescent dye with each compound, and immediately measuring fluorescence. Highly fluorescent compounds have the potential to produce toxicity in vivo. The liver or kidney slice assay is performed by incubating a slice of tissue from a core liver sample isolated from rat. Following a 24-hour incubation, RNA is extracted from the tissue slice, and the expression levels of 18 pro-inflammatory genes are measured. An induction in pro-inflammatory gene expression indicates a potential for pro-inflammatory effects in vivo.
Ex vivo assays were performed with liver or kidney tissue slices. The liver or kidney slice assay is performed by incubating a slice of tissue from a core liver or kidney sample isolated from rat. Following a 24-hour incubation, RNA is extracted from the tissue slice, and the expression levels of 18 pro-inflammatory genes, including IFIT, are measured. A log 2 transformation of the fold change (Log2-FC) relative to PBS treatment was performed. An induction in pro-inflammatory gene expression indicates a potential for pro-inflammatory effects in vivo.

A short description of series [2]: In vitro metabolic stability in monkey liver lysate. It is filed as in vitro ADME. To be noted: 24-hour incubation of RG4326. On the procedure:
(§2) Due to their reduced capacity for serum protein binding, which is a property that drives oligonucleotide distribution in the body, short oligonucleotides are not necessarily expected to have pharmacokinetic properties that make them suitable for use as drugs. RG4326 was incubated in mouse, monkey or human liver homogenate. The identity and concentration of RG4326 and metabolites was determined after a 24-hour incubation. RG4326 and metabolites were extracted using liquid-liquid extraction (LLE) and/or solid-phase extraction (SPE), which were then analyzed for identity and concentration using ion-pairing-reversed-phase high performance liquid chromatography coupled with time-of-flight mass spectrometry (IP—RP-HPLC-TOF).

Series [3] can be described thus: In vitro metabolic stability in human liver lysate. It is filed as in vitro ADME. Particulars: 24-hour incubation of RG4326. On the procedure: as §2
Setting [4] is: JCK mice, single subcutaneous 3 mg/kg, kidney, seven days.
Setting [5] is: JCK mice, single subcutaneous 30 mg/kg, kidney, seven days.
Setting [6] is: JCK mice, single subcutaneous 100 mg/kg, kidney, seven days.
The mark [7] stands for this setting: Normal (C57BL6) mice, single subcutaneous 0.3 mg/kg, kidney, seven days.
Setting [8] is: Normal (C57BL6) mice, single subcutaneous 3 mg/kg, kidney, seven days.
Where [9] appears, read: Normal (C57BL6) mice, single subcutaneous 30 mg/kg, kidney, seven days.

For the molecule “5′-CTGCACTGTAAGCACTTTG-3′ (all phosphorothioate, sugars by position and methylation of C not given here; DNA, 2'-MOE and S-cEt sugars) [Tool anti-miR-17, reference compound]”, the “miPSA displacement score (mean)” value is 0.97 in the series on miR-17 (setting [4]); 1.67 with miR-17 (setting [5]); 2.08 in the series with miR-17 (setting [6]); 1.51 with miR-17 (setting [7]); 2.05 in the series with miR-17 (setting [8]); 2.77 in the series on miR-17 (setting [9]). In the series with miR-17, the “miPSA Kidney AUC (8 hours to 7 days)” value is recorded as 296 Log2FC * h. In addition, in the series with miR-17, the “Potency Kidney D7” value is on record as 0.047 Log2FC * g/ug. Also, the “inhibition of miR-17 family members (in words)” value with miR-17 family is “hybridizes to and inhibits all members of the miR-17 family”.

For `COC1C(OP(=O)(S)OC[C@H]2O[C@@H](n3cnc4c(N)ncnc43)C(F)C2OP(=O)(S)OC[C@H]2O[C@@H](n3ccc(N)nc3=O)C(F)C2OP(=O)(S)OC[C@H]2O[C@@H](n3ccc(=O)[nH]c3=O)C(F)C2OP(=O)(S)OC[C@H]2O[C@@H](n3ccc(=O)[nH]c3=O)C(OC)C2OP(=O)(S)OC[C@]23O[C@@H](n4ccc(=O)[nH]c4=O)C(O[C@H]2C)C3OP(=O)(S)OC[C@]23O[C@@H](n4cnc5c(=O)[nH]c(N)nc54)C(O[C@H]2C)C3O)[C@@H](COP(=O)(S)OC2C3O[C@@H](C)[C@]2(COP(=O)(S)OC2C4O[C@@H](C)[C@]2(CO)O[C@H]4n2cnc4c(N)ncnc42)O[C@H]3n2cnc3c(=O)[nH]c(N)nc32)O[C@H]1n1ccc(N)nc1=O` (stereo in doubt) [RG4326, ASGSCMAFCFUFUMUSGS], the “miPSA Score PKD Mice” value with miR-17 (JCK mice, single dose 30 mg/kg, kidney, seven days) was 2.65. In addition, the “miPSA displacement score (mean)” value in the series with miR-17 (setting [4]) turned out to be 1.63; in the series on miR-17 (setting [5]) it was 2.58; in the series on miR-17 (setting [6]), 2.73; in the series on miR-17 (setting [7]) it was 2.29; in the series on miR-17 (setting [8]), 2.91; with miR-17 (setting [9]) it was 3.19. For the same molecule, in the series with miR-17 (wild type mice, single dose 3 mg/kg, kidney, seven days), the “miPSA Score Wild Type Mice” value was 2.63. In addition, the “miPSA Kidney AUC (8 hours to 7 days)” value in the series on miR-17 is on record as 463 Log2FC * h. The “Potency Kidney D7” value in the series on miR-17 was 0.351 Log2FC * g/ug. In series [1], the “Ex Vivo Kidney Slices Assay Pro-Inflammatory Signature Score (Log2-FC)” value is recorded as −0.30 ± 0.22 Log2-FC. The “Ex Vivo Liver Lysate (% Analyte), Monkey” value in series [2] is on record as 95.9%. The “Ex Vivo Liver Lysate (% Analyte), Human” value in series [3] turned out to be 98.7%.

These data come from US20250333745A1, “METHODS AND COMPOSITIONS FOR TREATMENT OF POLYCYSTIC KIDNEY DISEASE” (Regulus Therapeutics Inc., priority 2016, published 2025).
